Measured values from paper PMC11492916 (OncoTargets and Therapy, 2024).
Several values for one entry are separate records, joined by “and”; a condition that tells them apart may be missing. Equal values may be shown once.

Assays:
T47D = assay: MTT cytotoxicity assay, T47D breast cancer cells; format: cell-based; conditions: Homo sapiens, 48 h, read-out: IC50, cytotoxic activity against T47D
HeLa = assay: MTT cytotoxicity assay, HeLa cervical cancer cells; format: cell-based; conditions: Homo sapiens, 48 h, read-out: IC50, cytotoxic activity against HeLa

Q: For `COc1cccc2c1C(=O)c1c(O)c3c(c(O)c1C2=O)C[C@@](O)(C(=O)CO)C[C@@H]3O[C@H]1C[C@H](N)[C@H](O)[C@H](C)O1` [DOX, doxorubicin], which IC50 (T47D) is on record?
A: 0.17 µg/mL and 310 nM

Q: And the IC50 (HeLa)?
A: 3.38 µg/mL and 6.22 µM
